ChEMBL document CHEMBL5360537, “From lead to clinic: A review of the structural design of P2X7R antagonists” (Eur J Med Chem, 2023)

Key:
P2X purinoceptor 7 [1] = molecular target: T1, P2X purinoceptor 7 (Homo sapiens, UniProt Q99572); test: Inhibition of human P2X7 receptor in HEK cells by fluorescence based calcium influx assay; type: cell-based
T1 sequence (Q99572 whole entry): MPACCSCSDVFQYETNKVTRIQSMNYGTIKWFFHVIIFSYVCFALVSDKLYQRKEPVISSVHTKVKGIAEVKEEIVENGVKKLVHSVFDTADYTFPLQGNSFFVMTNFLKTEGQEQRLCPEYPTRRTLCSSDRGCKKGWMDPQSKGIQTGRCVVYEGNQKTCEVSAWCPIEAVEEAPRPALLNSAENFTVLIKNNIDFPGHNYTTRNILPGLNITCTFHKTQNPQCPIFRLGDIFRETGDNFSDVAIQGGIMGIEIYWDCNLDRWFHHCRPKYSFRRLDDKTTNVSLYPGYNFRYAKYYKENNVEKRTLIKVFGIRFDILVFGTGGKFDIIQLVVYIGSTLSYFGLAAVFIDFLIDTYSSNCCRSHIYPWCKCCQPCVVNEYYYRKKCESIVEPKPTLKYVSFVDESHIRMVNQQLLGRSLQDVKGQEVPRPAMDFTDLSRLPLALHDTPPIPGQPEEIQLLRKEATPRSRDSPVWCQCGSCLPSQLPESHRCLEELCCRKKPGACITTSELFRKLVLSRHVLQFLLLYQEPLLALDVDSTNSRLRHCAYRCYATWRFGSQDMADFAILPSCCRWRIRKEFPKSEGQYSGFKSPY

P2X purinoceptor 7 [2] = molecular target: T1, P2X purinoceptor 7; test: Antagonist activity at human P2X7 receptor expressed in 1321N1 cells by FLIPR assay; type: cell-based
P2X purinoceptor 7 [3] = molecular target: T1, P2X purinoceptor 7; test: Inhibition of human P2X7 receptor transfected in HEK293 cells by calcium influx assay; type: cell-based
P2X purinoceptor 7 [4] = molecular target: T2, P2X purinoceptor 7 (Rattus norvegicus, UniProt Q64663); test: Inhibition of rat P2X7 receptor transfected in HEK293 cells by calcium influx assay; type: cell-based
T2 sequence (Q64663 whole entry): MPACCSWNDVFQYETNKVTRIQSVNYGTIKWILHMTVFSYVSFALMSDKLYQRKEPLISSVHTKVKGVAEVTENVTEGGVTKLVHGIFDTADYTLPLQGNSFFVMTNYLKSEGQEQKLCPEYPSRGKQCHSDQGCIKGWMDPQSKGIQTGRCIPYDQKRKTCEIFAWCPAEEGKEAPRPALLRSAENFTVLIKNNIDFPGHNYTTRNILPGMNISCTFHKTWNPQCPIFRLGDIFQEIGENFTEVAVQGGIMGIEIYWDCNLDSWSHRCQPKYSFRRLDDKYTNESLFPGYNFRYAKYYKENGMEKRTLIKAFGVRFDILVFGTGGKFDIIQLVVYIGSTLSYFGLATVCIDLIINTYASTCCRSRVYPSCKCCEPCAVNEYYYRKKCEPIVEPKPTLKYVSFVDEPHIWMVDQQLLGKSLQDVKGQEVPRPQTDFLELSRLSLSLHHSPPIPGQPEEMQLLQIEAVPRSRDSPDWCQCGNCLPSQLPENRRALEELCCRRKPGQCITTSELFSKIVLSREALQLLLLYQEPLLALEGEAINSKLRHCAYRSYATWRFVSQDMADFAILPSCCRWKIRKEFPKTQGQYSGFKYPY

P2X purinoceptor 7 [5] = molecular target: T3, P2X purinoceptor 7 (Mus musculus, UniProt Q9Z1M0); test: Inhibition of mouse P2X7 receptor expressed in xenopus laevis Oocyte cells by TEVC analysis; type: cell-based
T3 sequence (Q9Z1M0 whole entry): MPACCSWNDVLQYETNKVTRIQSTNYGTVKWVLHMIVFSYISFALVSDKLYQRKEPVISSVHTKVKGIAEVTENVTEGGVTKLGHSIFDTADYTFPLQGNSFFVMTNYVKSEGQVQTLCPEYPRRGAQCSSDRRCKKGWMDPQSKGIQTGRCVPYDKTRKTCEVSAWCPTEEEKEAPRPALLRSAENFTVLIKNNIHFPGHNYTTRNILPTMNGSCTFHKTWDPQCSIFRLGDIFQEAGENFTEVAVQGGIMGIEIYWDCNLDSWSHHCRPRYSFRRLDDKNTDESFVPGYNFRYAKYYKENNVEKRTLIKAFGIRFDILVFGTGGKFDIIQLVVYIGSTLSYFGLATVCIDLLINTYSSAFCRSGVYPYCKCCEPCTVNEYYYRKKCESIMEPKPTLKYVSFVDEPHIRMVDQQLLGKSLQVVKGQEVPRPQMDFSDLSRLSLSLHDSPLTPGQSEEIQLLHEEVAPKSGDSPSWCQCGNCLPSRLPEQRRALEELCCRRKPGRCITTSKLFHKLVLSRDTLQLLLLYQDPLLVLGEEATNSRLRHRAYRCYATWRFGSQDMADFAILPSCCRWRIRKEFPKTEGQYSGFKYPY

[6] = AUC(0 to 6 hrs) in Han Wistar rat Brain at 1 mg/kg, iv measured upto 6 hrs by liquid chromatography tandem mass spectrometry; type: ADME, organism-based; parameters: time < 6 hrs, dose 1 mg/kg, route iv
[7] = Half life in Han Wistar rat plasma at 1 mg/kg, iv measured upto 6 hrs by liquid chromatography tandem mass spectrometry; type: ADME, organism-based
[8] = Half life in Han Wistar rat Brain at 1 mg/kg, iv measured upto 6 hrs by liquid chromatography tandem mass spectrometry; type: ADME, organism-based
[9] = AUC(0 to 6 hrs) in Han Wistar rat plasma at 1 mg/kg, iv measured upto 6 hrs by liquid chromatography tandem mass spectrometry; type: ADME, organism-based; parameters: time < 6 hrs, dose 1 mg/kg, route iv
[10] = molecular target: T4, P2X purinoceptor 7 (Mus musculus) (UniProt Q9Z1M0); test: Antagonist activity at P2X7 receptor in mouse Peritoneal macrophage cells assessed as ATP induced dye uptake at 10 uM relative to control; type: cell-based
T4 sequence (whole entry): T3 sequence (Q9Z1M0 whole entry)

P2X purinoceptor 7 [11] = molecular target: T1, P2X purinoceptor 7; test: Antagonist activity at P2X7 receptor in human THP-1 cells assessed as reduction in ATP induced IL-1 beta release; type: cell-based
Mus musculus = test: Antiinflammatory activity in ATP induced mouse paw edema model; type: functional; details: read-out: ID50 (the source's name)
P2X purinoceptor 7 [12] = molecular target: T3, P2X purinoceptor 7; test: Antagonist activity at P2X7 receptor in mouse Peritoneal macrophage cells assessed as reduction in ATP induced IL-1 beta release; type: cell-based
P2X purinoceptor 7 [13] = molecular target: T1, P2X purinoceptor 7; test: Inhibition of P2X7 (unknown origin) assessed as reduction in IL-1 beta release
P2X purinoceptor 7 [14] = molecular target: T1, P2X purinoceptor 7; test: Inhibition of P2X7 in human THP-1cells assessed as reduction in YO-PRO-1 iodide dye uptake measured after 24 hrs by fluorescence based assay; type: cell-based

Question: For COc1ccc(Cl)c(C(=O)NCC23CC4CC(CC(F)(C4)C2)C3)c1, which IC50 (P2X purinoceptor 7 [1]) is on record?
Answer: Its IC50 is 17 nM.

Question: For Cc1c(F)cc(CO)cc1Nc1nc(=O)cnn1Cc1cc(F)c(F)c(F)c1, which IC50 (P2X purinoceptor 7 [2]) is on record?
Answer: Its IC50 is 3 nM.

Question: For O=C(NCc1ccc(Cl)cc1Cl)[C@@]1(F)CC[C@](O)(CN2CC(O)C2)c2ncccc21, which IC50 (P2X purinoceptor 7 [3]) is on record?
Answer: Its IC50 is less than 50 nM.

Question: Which IC50 (P2X purinoceptor 7 [3]) does the source give for CS(=O)(=O)C1CC[C@@](F)(C(=O)NCc2ccc(Cl)cc2Cl)c2cccnc21 (stereo partly drawn) here?
Answer: Its IC50 is less than 50 nM.

Question: For O=C1CCC(C(=O)NCC2CCCCCCC2)c2cccnc21 (stereo not drawn), which IC50 (P2X purinoceptor 7 [4]) is on record?
Answer: Its IC50 is greater than 1000 nM.

Question: What about the IC50 (P2X purinoceptor 7 [3]) of the same compound?
Answer: Its IC50 is greater than 1000 nM.

Question: For Cc1ccc(C2(CNC(=O)c3cc(CO[N+](=O)[O-])ccc3Cl)CCCCC2)cc1, which IC50 (P2X purinoceptor 7 [5]) is on record?
Answer: The IC50 was 1430 nM.

Question: Which AUC(0-t) at 6 h [6] does the source give for COc1ccc(Cl)c(C(=O)NCC23CC4(F)CC(F)(CC(F)(C4)C2)C3)c1 here?
Answer: Its AUC(0-t) at 6 h is 380 ng·h/mL.

Question: And the half-life [7]?
Answer: The half-life was 1.72 h.

Question: What about the half-life [8] of the same compound?
Answer: Its half-life is 1.26 h.

Question: What about the AUC(0-t) at 6 h [9] of the same compound?
Answer: The AUC(0-t) at 6 h was 385 ng·h/mL.

Question: With CC1=C(C(C)n2cc(COCc3ccco3)nn2)C(=O)c2ccccc2C1=O (stereo not drawn) as the compound, how does the inhibition [10] read?
Answer: The inhibition was less than 60%.

Question: For CC1=C(C(c2ccc(F)cc2)n2cc(COCc3ccco3)nn2)C(=O)c2ccccc2C1=O (stereo not drawn), which inhibition [10] is on record?
Answer: Its inhibition is less than 60%.

Question: Which IC50 (P2X purinoceptor 7 [2]) does the source give for COc1cc(Nc2nc(=O)c(F)cn2Cc2cc(F)c(F)c(F)c2)c(C)c(F)c1OC here?
Answer: The IC50 was less than 10 nM.

Question: For O=C(NCc1cccc(C(F)(F)F)c1Cl)[C@@]1(O)CCC(O)c2ncccc21 (stereo partly drawn), which IC50 (P2X purinoceptor 7 [4]) is on record?
Answer: Its IC50 is less than 1000 nM.

Question: And the IC50 (P2X purinoceptor 7 [3])?
Answer: Its IC50 is 101 nM.

Question: Which results are given for CC1=C(C(c2ccc(Cl)cc2)n2cc(COCc3ccco3)nn2)C(=O)c2ccccc2C1=O (stereo not drawn)?
Answer: IC50 (P2X purinoceptor 7 [11]): 1100 nM; ED50 (Mus musculus): 16 mg/kg; inhibition ([10]; filed as antagonist): 60%; IC50 (P2X purinoceptor 7 [12]): 1500 nM

Question: For C[C@@H](CO)n1ccc2c(NC(=O)CC34CC5CC(CC(C5)C3)C4)cccc2c1=O, which IC50 (P2X purinoceptor 7 [13]) is on record?
Answer: Its IC50 is 0.15 nM.

Question: And the IC50 (P2X purinoceptor 7 [14])?
Answer: The IC50 was 107 nM.

Question: With Cc1ccc(-c2ncco2)cc1Nc1nc(=O)cnn1Cc1cc(F)c(F)c(F)c1 as the compound, how does the IC50 (P2X purinoceptor 7 [2]) read?
Answer: Its IC50 is 2.4 nM.

Question: For O=C(NCC1(c2ccc(CO[N+](=O)[O-])cc2)CCCCC1)c1ccccc1Cl, which IC50 (P2X purinoceptor 7 [5]) is on record?
Answer: The IC50 was 390 nM.

Question: With CC1=C(C(c2ccc(C)cc2)n2cc(COCc3ccco3)nn2)C(=O)c2ccccc2C1=O (stereo not drawn) as the compound, how does the inhibition [10] read?
Answer: Its inhibition is less than 60%.

Question: Which IC50 (P2X purinoceptor 7 [13]) does the source give for C[C@H](CO)n1ccc2c(NC(=O)CC34CC5CC(CC(C5)C3)C4)cccc2c1=O here?
Answer: Its IC50 is 1 nM.

Question: And the IC50 (P2X purinoceptor 7 [14])?
Answer: Its IC50 is 520 nM.

Question: With Cc1ccc(OCCO)cc1Nc1nc(=O)cnn1Cc1cc(F)c(F)c(F)c1 as the compound, how does the IC50 (P2X purinoceptor 7 [2]) read?
Answer: The IC50 was 9.7 nM.
